Measured values as given in PubChem BioAssay (NCI).
Values joined by “and” are separate entries in the source; they are usually repeats but may differ in a detail not shown here. Identical values can stand only once.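 Interpolation was linear, between the two tested concentrations surrounding the appropriate level; five concentrations were tested over 48 hours in 96-well plates. GI50 marks 50% less growth. TGI marks complete inhibition of growth.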

Experiments:
Experiment in all cases: growth of human tumour cells (NCI), 48 h
TK-10 renal = test system: TK-10 renal
SK-OV-3 ovarian = test system: SK-OV-3 ovarian
HOP-62 NSCLC = test system: HOP-62 NSCLC
A549 NSCLC = test system: A549 NSCLC
NCI-H226 lung = test system: NCI-H226 lung
HL-60(TB) leukemia = test system: HL-60(TB) leukemia
EKVX NSCLC = test system: EKVX NSCLC
CAKI-1 renal = test system: CAKI-1 renal
K-562 leukemia = test system: K-562 leukemia
NCI-H460 lung = test system: NCI-H460 lung

Row | SMILES | TGI (TK-10 renal) | TGI (SK-OV-3 ovarian) | TGI (HOP-62 NSCLC) | TGI (A549 NSCLC) | TGI (NCI-H226 lung) | TGI (HL-60(TB) leukemia) | TGI (EKVX NSCLC) | TGI (CAKI-1 renal) | TGI (K-562 leukemia) | TGI (NCI-H460 lung) | GI50 (TK-10 renal) | GI50 (HOP-62 NSCLC) | GI50 (A549 NSCLC) | GI50 (NCI-H226 lung) | GI50 (HL-60(TB) leukemia) | GI50 (EKVX NSCLC) | GI50 (CAKI-1 renal) | GI50 (K-562 leukemia) | GI50 (NCI-H460 lung) | GI50 (SK-OV-3 ovarian)
1 | O=C1C(Cl)=C(Cl)C(=O)N1c1ccccc1Cl | > 100 µM | > 100 µM | > 100 µM | > 100 µM | > 100 µM | 21.7 µM | > 100 µM | > 60.9 µM | > 81 µM | > 100 µM | – | – | – | – | – | – | – | – | – | –
2 | O=c1c2cccc(F)c2sc2c(NCCCNCCO)nc3ccccc3c12 | 3.57 µM | – | 3.59 µM | 3.08 µM | 3.35 µM | 3.91 µM | 2.64 µM | 2.73 µM | 4.64 µM | 1.95 µM | 1.96 µM | 1.54 µM | 1.13 µM | 1.7 µM | 1.92 µM | 1.29 µM | 1.42 µM | 1.75 µM | 0.653 µM | –
3 | Cc1ccccc1C=NC12CC3CC(CC(C3)C1)C2 | > 100 µM | > 100 µM | > 100 µM | > 100 µM | > 100 µM | > 100 µM | > 100 µM | > 100 µM | > 100 µM | > 100 µM | – | – | – | – | – | – | – | – | – | –
4 | O=C(Nc1ccccc1)n1cc(-c2ccccn2)c(N2CCOCC2)n1 | > 100 µM | > 100 µM | > 100 µM | > 100 µM | > 100 µM | 6.93 µM | > 100 µM | 49.7 µM | > 100 µM | > 100 µM | – | – | – | – | – | – | – | – | – | –
5 | COC(=O)C(=O)C(C#N)c1cccc(Cl)c1 (stereo unspecified) | > 100 µM | > 100 µM | > 100 µM | > 100 µM | > 100 µM | > 100 µM | > 100 µM | > 100 µM | > 100 µM | > 100 µM | – | – | – | – | – | – | – | – | – | –
6 | CC(=O)OC1CC2C(C)(C)CCC[C@]2(C)C2=C1C(O)=C(C(C)C)C(=O)C2=O (stereo partly specified) | 12.8 µM | > 28.4 µM | 4.47 µM | 3.01 µM | 2.12 µM | 4.23 µM | 1.53 µM | 2.9 µM | > 100 µM | 1.69 µM | 1.43 µM | 2.13 µM | 0.521 µM | 0.589 µM | 0.613 µM | 0.3 µM | 0.567 µM | 0.919 µM | 0.354 µM | 2.59 µM
7 | O=C(/C=C/c1ccco1)Nc1ncc(Cc2cccc(C(F)(F)F)c2)s1 | 13.8 µM | 7.45 µM | 6.32 µM | > 36.4 µM | – | 0.19 µM | > 55.8 µM | 7.93 µM | > 33.8 µM | 9.59 µM | 0.779 µM | 0.0965 µM | 0.113 µM | 0.336 µM | 0.0604 µM | 0.117 µM | 0.0464 µM | 0.0361 µM | 0.0401 µM | 0.0626 µM
8 | CCC1=C[C@@H]2CN(C1)Cc1c([nH]c3ccccc13)[C@@](C(=O)OC)(c1cc3c(cc1OC)N(C)[C@H]1[C@@](O)(C(=O)OC)[C@H](OC(C)=O)[C@]4(CC)C=CCN5CC[C@]31[C@@H]54)C2 | 16.7 µM | 2.02 µM | 24.4 µM | > 34.1 µM | 36.5 µM | < 0.01 µM | 18.8 µM | 2.52 µM | 18.9 µM | 0.444 µM | 0.641 µM | < 0.0148 µM | < 0.019 µM | < 0.0302 µM | < 0.01 µM | < 0.01 µM | – | < 0.01 µM | < 0.01 µM | < 0.01 µM
9 | N#CC(C(=O)CCC(=O)Nc1ccc(Cl)cc1)c1ccc(Cl)cc1 (stereo unspecified) | > 100 µM | > 100 µM | > 100 µM | > 100 µM | > 100 µM | > 100 µM | > 100 µM | > 100 µM | > 100 µM | > 100 µM | – | – | – | – | – | – | – | – | – | –
10 | C[C@]12CCCN1CC1=NNC(=O)c3cc(F)cc4[nH]c2c1c34 | > 100 µM | > 100 µM | 89.4 µM | > 100 µM | 67.7 µM | 66.9 µM | 49.7 µM | > 100 µM | – | > 100 µM | 22.6 µM | 20.1 µM | 22.4 µM | 7.84 µM | 25 µM | 13.6 µM | 7.73 µM | – | 11.5 µM | 25.9 µM
11 | NC(CP(=O)(O)O)C(=O)O (stereo unspecified) | > 100 µM | > 100 µM | > 100 µM | > 100 µM | > 100 µM | > 100 µM | > 100 µM | > 100 µM | > 100 µM | > 100 µM | – | – | – | – | – | – | – | – | – | –
12 | CCc1cccc(C)c1N1C(=O)C(=O)C(c2nc3ccccc3o2)/C(=N/NC(=S)NN)C1=O (stereo unspecified) | > 100 µM | > 100 µM | > 100 µM | > 100 µM | > 100 µM | > 100 µM | > 100 µM | > 100 µM | > 100 µM | > 100 µM | – | – | – | – | – | – | – | – | – | –
13 | CC(=O)NC(CS)C(=O)O (stereo unspecified) | > 100 µM and 76500 µM | > 100 µM | 45500 µM | > 100 µM and 69600 µM | > 100 µM and 45000 µM | > 100 µM | > 100 µM and 87600 µM | > 100 µM and 53400 µM | – | 62300 µM | > 100 µM | – | > 100 µM | > 100 µM | > 100 µM | > 100 µM | > 100 µM | – | – | > 100 µM
14 | CN(C)c1ccc(/C=C(\C#N)c2ccccc2)cc1 | > 100 µM | > 100 µM | 59.9 µM and > 100 µM | > 100 µM | > 100 µM | 11.8 µM | > 100 µM | – | > 100 µM | – | 0.553 µM and 0.999 µM and 4.9 µM | 1.37 µM and 0.993 µM and 0.567 µM | 0.73 µM and 0.796 µM and 0.691 µM | 4.7 µM and 13.3 µM and 24 µM | 0.218 µM and 0.34 µM | 0.499 µM and 1.43 µM and 1.78 µM | 0.244 µM and 0.586 µM and 0.591 µM | 0.194 µM and 0.337 µM and 0.35 µM | 0.356 µM and 0.415 µM and 0.431 µM | 0.421 µM and 0.622 µM and 0.641 µM
15 | O=C[C@]12CC=C3OC4OC5(CCCCC5)OC4[C@H]3[C@H]1C(=O)C=CC2=O (stereo partly specified) | 81.3 µM | > 100 µM | > 100 µM | > 100 µM | > 100 µM | 2.78 µM | 39.8 µM | 74.6 µM | – | 58.7 µM | – | – | – | – | – | – | – | – | – | –
16 | Cn1cnc([N+](=O)[O-])c1Sc1nc2ccccc2o1 | 22.9 µM | > 81.2 µM | > 94.4 µM | 75.4 µM | 30.9 µM | 3.79 µM | 15.3 µM | 6.19 µM | 11.3 µM | > 71.6 µM | – | – | – | – | – | – | – | – | – | –
17 | N#CC(C#N)=Cc1ccc(C(O)P(=O)(O)O)cc1 (stereo unspecified) | > 100 µM | > 100 µM | > 100 µM | > 100 µM | > 100 µM | > 100 µM | > 100 µM | > 100 µM | > 100 µM | > 100 µM | – | – | – | – | – | – | – | – | – | –
18 | CN1C(c2ccccc2)CC(C)(O)CC1c1ccccc1 (stereo unspecified) | > 100 µM | > 100 µM | > 100 µM | > 100 µM | > 100 µM | > 100 µM | > 100 µM | > 100 µM | > 100 µM | > 100 µM | – | – | – | – | – | – | – | – | – | –
19 | O=C1CC(C(=O)O)Cc2c(Br)ccc(O)c21 (stereo unspecified) | > 100 µM | > 100 µM | > 100 µM | > 100 µM | > 100 µM | > 100 µM | > 100 µM | > 100 µM | > 100 µM | > 100 µM | – | – | – | – | – | – | – | – | – | –
20 | O=C(Nc1ccc(Oc2ccc(NC(=O)Nc3ccccc3Cl)cc2)cc1)Nc1ccccc1Cl | 45.1 µM | 38.1 µM | 34.1 µM | > 26.1 µM | 49 µM | 32.4 µM | > 100 µM | > 88.2 µM | > 40.1 µM | > 100 µM | 4.72 µM | 12.4 µM | 2.69 µM | 15.6 µM | 14.8 µM | 16.4 µM | > 31.9 µM | 2.63 µM | 2.49 µM | 9.33 µM
21 | CS(=O)(=O)c1ccc2c(c1)C(=O)c1c-2n(CCCBr)c(=O)c2cc([N+](=O)[O-])ccc12 | > 100 µM | > 100 µM | > 100 µM | > 100 µM | > 100 µM | > 100 µM | > 100 µM | > 100 µM | > 100 µM | > 100 µM | 40.2 µM | 8.14 µM | 7.34 µM | 26.5 µM | 3.37 µM | > 100 µM | 16.4 µM | 5.15 µM | 0.718 µM | 7.58 µM
22 | C=C[C@H]1CN2CCc3c([nH]c4c([C@@H]5CCCN5C)c(O)ccc34)[C@@H]2C[C@@H]1C[C@H]1c2[nH]c3ccccc3c2CCN1C | 0.993 µM and 2.98 µM and 3.44 µM | 3.23 µM [middle of 4 runs] | 2.87 µM and 2.74 µM and 2.45 µM | 3.12 µM and 3.13 µM | 2.96 µM and 3.13 µM and 3.97 µM | 2.06 µM and 1.85 µM and 1.9 µM | 2.94 µM and 3.07 µM | 3 µM and 3.23 µM | – | 3.1 µM and 2.99 µM | 0.031 µM | – | – | 1.27 µM | – | – | – | – | – | 2.03 µM
23 | N#CCCN(C1=NN(C(=O)CC(=O)Nc2ccc(Cl)cc2)C(c2ccccc2)C1)c1ccc(Cl)cc1 (stereo unspecified) | > 100 µM | – | > 100 µM | > 100 µM | > 100 µM | > 100 µM | > 100 µM | > 100 µM | > 100 µM | > 100 µM | – | – | – | – | – | – | – | – | – | –
24 | O=C(CN1CCN(CCN2C(=O)c3cccc4cccc(c34)C2=O)CC1)Nc1ccc2ncsc2c1 | 23.7 µM | 23.3 µM | 23.4 µM | 15.4 µM | > 100 µM | 27.5 µM | 39.2 µM | > 100 µM | – | 14.7 µM | 10.5 µM | 5.69 µM | 3.58 µM | 7.58 µM | 10.2 µM | 9.79 µM | 4.91 µM | – | 3.58 µM | 8.35 µM
